# Values of other authors in patent EP0413839A1, “GHRH analogs” (The Administrators of The Tulane Educational Fund, priority 1989, dated 1991).
# No end group written: not given here.
# Settings: percent of the potency of hGRF
row,Substance,potency of hGRF
1,"hGRF(1-37)-NH₂ (YADAIFTNSYRKVLGQLSARKLLQDIMSRQQGESNQE-NH2; UniProt P01286 32-68, looked up, fragment) [fragment of human growth hormone releasing factor terminated with an amide group]",at least 50%
2,"hGRF(1-27)-NH₂ (YADAIFTNSYRKVLGQLSARKLLQDIM-NH2; UniProt P01286 32-58, looked up, fragment) [shortened hGRF fragment with amidated C-terminus]",1.12%
3,hGRF(1-29)OH,12.6%
4,"hGRF(1-23)-NH₂ (YADAIFTNSYRKVLGQLSARKLL-NH2; UniProt P01286 32-54, looked up, fragment) [shortened hGRF fragment with amidated C-terminus]",0.24%
